Experimental data from publication PMC8228600, “Design, Synthesis, In Vitro and In Vivo Evaluation of Heterobivalent SiFAlin-Modified Peptidic Radioligands Targeting Both Integrin αvβ3 and the MC1 Receptor—Suitable for the Specific Visualization of Melanomas?” (Pharmaceuticals, 2021).
Where two headings read alike, the source gives them in different places.

Experiments:
[1] = Ex vivo biodistribution in tumor-bearing nude mice (non-tumor tissues); conditions: male, Balb/cAnNRj-Foxn1nu/nu (nude), mouse, iv, total radioactivity, ex vivo after PET/CT scan, i.v., n = 3
Description: (§1) For the evaluation of the in vivo pharmacokinetics, the two most promising HBPLs—[^18F]2 with the highest affinity to both target receptors and [^18F]4 with the highest hydrophilicity and still reasonable binding affinities—were selected. For PET/CT imaging, 6-week-old male nude mice (Balb/cAnNRj-Foxn1^nu/nu) were subcutaneously injected with 5 × 10^5 B16F10 cells into the right flank and 2.0–2.5 × 10^6 U87MG cells into the left flank to generate the respective receptor-positive tumors. When the tumors reached a sufficient size for imaging, each mouse was administered 4.15 ± 2.28 MBq of [^18F]2 or 3.95 ± 2.06 MBq of [^18F]4 via the lateral tail vein under isoflurane anesthesia. To determine the receptor specificity of both peptide parts of the labeled HBPLs and their relative contribution to overall tumor uptake, blocking experiments were also performed. […] After i.v. injection of the tracers, a dynamic PET scan, followed by a CT scan, was performed. The resulting PET/CT images and time–activity curves (TACs) are depicted in Figure 6, Figure 7 and Figure 8. After completion of the diagnostic scans, the mice were sacrificed, their organs (blood, spleen, liver, kidney, pancreas, lung, heart, brain, bone, muscle, tail, tumors, stomach, colon and small intestine) were collected and measured in a γ-counter for ex vivo biodistribution (see Supplementary Materials Table S1 for detailed results).
(§2) Each male nude mouse (six weeks old) was injected subcutaneously with 5 × 10^5 B16F10 cells into the right flank and 2.0–2.5 × 10^6 U87MG cells into the left flank. The health status and tumor growth of the mice were monitored regularly until the animals could be examined after 15–21 days, depending on the tumor size. For the in vivo experiments, the ^18F-radiolabeled compound was diluted in 0.9% saline to give a final EtOH concentration of <10%. Each mouse was injected with 4.15 ± 2.28 MBq of [^18F]2 or 3.95 ± 2.06 MBq of [^18F]4 via the lateral tail vein under isoflurane anesthesia. […] Each ^18F-labeled compound was studied with or without blocking in at least three mice. Mice were measured under isoflurane anesthesia in a small PET/SPECT/CT animal imaging system. First, a dynamic PET scan was performed over 90 min and the scan was framed in 29 timeframes (10 × 1 min, 10 × 2 min, 6 × 5 min, 3 × 10 min). Images were reconstructed using 12 iterations, a maximum likelihood expectation maximization (MLEM) algorithm including corrections for scattered radiation and decay and a voxel size of 0.5 mm. All PET scans were immediately followed by CT acquisition at a voltage of 45 kV and a current of 400 μA. The images were reconstructed using the filtered back projection (FBP) algorithm with a voxel size of 250 μm. The analysis of the data, including the generation of TACs of the kidneys, liver and tumors and the MIPs, was performed via PMOD (v3.8). For ex vivo biodistribution, the mice were sacrificed directly after the PET/CT scan. Organs (blood, spleen, liver, kidneys, pancreas, lungs, heart, brain, bone, muscle, tail, tumors, stomach, colon and small intestine) were collected, weighed and their radioactivity measured in a γ-counter. The percentage injected dose per gram (% ID/g) of each tissue was calculated from the determined values, organ weights, reference values and injected activity.

[2] = Ex vivo biodistribution: uptake in U87MG tumors and tumor-to-organ ratios; design: species or system nude mice (Balb/cAnNRj-Foxn1nu/nu); conditions: male, Balb/cAnNRj-Foxn1nu/nu (nude), mouse, iv, total radioactivity; for tissue uptake: U87MG tumor (integrin αvβ3-positive); for tissue to tissue ratio: ex vivo biodistribution, mean (n = 3) ± SD
Description: as §1, §2

[3] = tested on: integrin αvβ3-positive U87MG tumors; assay: as above; design: species or system nude mice (Balb/cAnNRj-Foxn1nu/nu); conditions: c(RGDyK) blocking (200 μg coinjected); ex vivo after PET/CT scan; i.v.; n = 3
Description: as §1, §2

Molecule `CCCC[C@H](NC(=O)CNC(=O)CNC(=O)CCOCCOCCOCCOCCC(=O)NCCCN(CCCNC(=O)CCOCCOCCOCCOCCC(=O)NCCCC[C@@H]1NC(=O)[C@@H](Cc2ccccc2)NC(=O)[C@H](CC(=O)O)NC(=O)CNC(=O)[C@H](CCCNC(=N)N)NC1=O)CC(=O)N[C@@H](CCCCNC(=O)CCC[N+](C)(C)Cc1ccc([Si](F)(C(C)(C)C)C(C)(C)C)cc1)C(N)=O)C(=O)N[C@H]1CC(=O)NCCCC[C@@H](C(N)=O)NC(=O)[C@H](Cc2c[nH]c3ccccc23)NC(=O)[C@H](CCCNC(=N)N)NC(=O)[C@@H](Cc2ccccc2)NC(=O)[C@H](Cc2c[nH]cn2)NC1=O` [[^18F]2] has a tissue uptake at 1.5 h ([1]; blood, NDP blocking (20 μg coinjected), read-out: ID/g, blood) of 0.84 ± 0.12 %ID/g, a tissue uptake at 1.5 h ([1]; blood, c(RGDyK) blocking (200 μg coinjected), read-out: ID/g, blood) of 1.14 ± 0.15 %ID/g and a tissue uptake at 1.5 h ([1]; blood, double blocking (NDP + c(RGDyK)), read-out: ID/g, blood) of 1.13 ± 0.1 %ID/g. It also gave a tissue uptake at 1.5 h ([1]; blood, without blocking, read-out: ID/g, blood) of 0.99 ± 0.23 %ID/g, a tissue uptake at 1.5 h ([1]; bone, NDP blocking (20 μg coinjected), read-out: ID/g, bone) of 9.74 ± 2.85 %ID/g and a tissue uptake at 1.5 h ([1]; bone, c(RGDyK) blocking (200 μg coinjected), read-out: ID/g, bone) of 4.12 ± 0.73 %ID/g. The tissue uptake at 1.5 h ([1]; bone, double blocking (NDP + c(RGDyK)), read-out: ID/g, bone) was 4.47 ± 1.57 %ID/g, the tissue uptake at 1.5 h ([1]; bone, without blocking, read-out: ID/g, bone) was 8.01 ± 3.48 %ID/g and the tissue uptake at 1.5 h ([1]; brain, NDP blocking (20 μg coinjected), read-out: ID/g, brain) was 0.13 ± 0.03 %ID/g. It also gave a tissue uptake at 1.5 h ([1]; brain, c(RGDyK) blocking (200 μg coinjected), read-out: ID/g, brain) of 0.13 ± 0.05 %ID/g, a tissue uptake at 1.5 h ([1]; brain, double blocking (NDP + c(RGDyK)), read-out: ID/g, brain) of 0.07 ± 0.01 %ID/g and a tissue uptake at 1.5 h ([1]; brain, without blocking, read-out: ID/g, brain) of 0.18 ± 0.02 %ID/g. For the same molecule, the tissue uptake ([1]; colon, NDP blocking (20 μg coinjected), read-out: ID/g, colon) was 1.44 ± 0.34 %ID/g, the tissue uptake ([1]; colon, c(RGDyK) blocking (200 μg coinjected), read-out: ID/g, colon) was 0.5 ± 0.07 %ID/g and the tissue uptake ([1]; colon, double blocking (NDP + c(RGDyK)), read-out: ID/g, colon) was 0.63 ± 0.2 %ID/g. It also gave a tissue uptake ([1]; colon, without blocking, read-out: ID/g, colon) of 1.58 ± 0.44 %ID/g, a tissue uptake at 1.5 h ([1]; heart, NDP blocking (20 μg coinjected), read-out: ID/g, heart) of 1.06 ± 0.31 %ID/g and a tissue uptake at 1.5 h ([1]; heart, c(RGDyK) blocking (200 μg coinjected), read-out: ID/g, heart) of 0.62 ± 0.09 %ID/g. It also gave a tissue uptake at 1.5 h ([1]; heart, double blocking (NDP + c(RGDyK)), read-out: ID/g, heart) of 0.93 ± 0.18 %ID/g, a tissue uptake at 1.5 h ([1]; heart, without blocking, read-out: ID/g, heart) of 1.24 ± 0.36 %ID/g and a tissue uptake at 1.5 h ([1]; kidneys, NDP blocking (20 μg coinjected), read-out: ID/g, kidneys) of 17.3 ± 2.08 %ID/g. For the same molecule, the tissue uptake at 1.5 h ([1]; kidneys, c(RGDyK) blocking (200 μg coinjected), read-out: ID/g, kidneys) was 12.1 ± 2.3 %ID/g, the tissue uptake at 1.5 h ([1]; kidneys, double blocking (NDP + c(RGDyK)), read-out: ID/g, kidneys) was 24 ± 6.34 %ID/g and the tissue uptake at 1.5 h ([1]; kidneys, without blocking, read-out: ID/g, kidneys) was 13.2 ± 3.57 %ID/g. For the same molecule, the tissue uptake at 1.5 h ([1]; liver, NDP blocking (20 μg coinjected), read-out: ID/g, liver) was 14.9 ± 5.07 %ID/g, the tissue uptake at 1.5 h ([1]; liver, c(RGDyK) blocking (200 μg coinjected), read-out: ID/g, liver) was 4.94 ± 1.39 %ID/g and the tissue uptake at 1.5 h ([1]; liver, double blocking (NDP + c(RGDyK)), read-out: ID/g, liver) was 8.5 ± 2.71 %ID/g. The tissue uptake ([1]; liver, without blocking, read-out: ID/g, liver) was 17.2 ± 6.58 %ID/g, the tissue uptake at 1.5 h ([1]; lung, NDP blocking (20 μg coinjected), read-out: ID/g, lung) was 2.98 ± 0.87 %ID/g and the tissue uptake at 1.5 h ([1]; lung, c(RGDyK) blocking (200 μg coinjected), read-out: ID/g, lung) was 1.07 ± 0.15 %ID/g. It also gave a tissue uptake at 1.5 h ([1]; lung, double blocking (NDP + c(RGDyK)), read-out: ID/g, lung) of 1.3 ± 0.36 %ID/g, a tissue uptake at 1.5 h ([1]; lung, without blocking, read-out: ID/g, lung) of 2.89 ± 1.04 %ID/g and a tissue uptake at 1.5 h ([1]; muscle, NDP blocking (20 μg coinjected), read-out: ID/g, muscle) of 1.37 ± 0.26 %ID/g. For the same molecule, the tissue uptake at 1.5 h ([1]; muscle, c(RGDyK) blocking (200 μg coinjected), read-out: ID/g, muscle) was 0.38 ± 0.04 %ID/g, the tissue uptake at 1.5 h ([1]; muscle, double blocking (NDP + c(RGDyK)), read-out: ID/g, muscle) was 0.34 ± 0.07 %ID/g and the tissue uptake at 1.5 h ([1]; muscle, without blocking, read-out: ID/g, muscle) was 4.37 ± 2.58 %ID/g. It also gave a tissue uptake at 1.5 h ([1]; pancreas, NDP blocking (20 μg coinjected), read-out: ID/g, pancreas) of 0.8 ± 0.15 %ID/g, a tissue uptake at 1.5 h ([1]; pancreas, c(RGDyK) blocking (200 μg coinjected), read-out: ID/g, pancreas) of 0.36 ± 0.04 %ID/g and a tissue uptake at 1.5 h ([1]; pancreas, double blocking (NDP + c(RGDyK)), read-out: ID/g, pancreas) of 0.55 ± 0.15 %ID/g. For the same molecule, the tissue uptake at 1.5 h ([1]; pancreas, without blocking, read-out: ID/g, pancreas) was 0.91 ± 0.29 %ID/g, the tissue uptake ([1]; small intestine, NDP blocking (20 μg coinjected), read-out: ID/g, small intestine) was 2.75 ± 0.36 %ID/g and the tissue uptake ([1]; small intestine, c(RGDyK) blocking (200 μg coinjected), read-out: ID/g, small intestine) was 0.75 ± 0.11 %ID/g. For the same molecule, the tissue uptake ([1]; small intestine, double blocking (NDP + c(RGDyK)), read-out: ID/g, small intestine) was 0.9 ± 0.23 %ID/g, the tissue uptake ([1]; small intestine, without blocking, read-out: ID/g, small intestine) was 2.46 ± 1.77 %ID/g and the tissue uptake ([1]; spleen, NDP blocking (20 μg coinjected), read-out: ID/g, spleen) was 2.75 ± 0.55 %ID/g. For the same molecule, the tissue uptake ([1]; spleen, c(RGDyK) blocking (200 μg coinjected), read-out: ID/g, spleen) was 0.94 ± 0.19 %ID/g, the tissue uptake ([1]; spleen, double blocking (NDP + c(RGDyK)), read-out: ID/g, spleen) was 1.07 ± 0.32 %ID/g and the tissue uptake ([1]; spleen, without blocking, read-out: ID/g, spleen) was 2.73 ± 0.85 %ID/g. For the same molecule, the tissue uptake ([1]; stomach, NDP blocking (20 μg coinjected), read-out: ID/g, stomach) was 1.52 ± 0.31 %ID/g, the tissue uptake ([1]; stomach, c(RGDyK) blocking (200 μg coinjected), read-out: ID/g, stomach) was 0.54 ± 0.04 %ID/g and the tissue uptake ([1]; stomach, double blocking (NDP + c(RGDyK)), read-out: ID/g, stomach) was 0.54 ± 0.12 %ID/g. The tissue uptake ([1]; stomach, without blocking, read-out: ID/g, stomach) was 1.56 ± 0.29 %ID/g, the tissue uptake at 1.5 h ([1]; tail, NDP blocking (20 μg coinjected), read-out: ID/g, tail) was 37.6 ± 8.67 %ID/g and the tissue uptake at 1.5 h ([1]; tail, c(RGDyK) blocking (200 μg coinjected), read-out: ID/g, tail) was 69 ± 3.84 %ID/g. The tissue uptake ([1]; tail, double blocking (NDP + c(RGDyK)), read-out: ID/g, tail) was 53.3 ± 12.8 %ID/g, the tissue uptake at 1.5 h ([1]; tail, without blocking, read-out: ID/g, tail) was 38 ± 14.4 %ID/g and the tissue uptake ([2]; NDP blocking (20 μg coinjected), ex vivo after PET/CT scan, i.v., n = 3) was 3.19 ± 0.33 %ID/g. The tissue uptake ([2]; c(RGDyK) blocking (200 μg coinjected), ex vivo after PET/CT scan, i.v., n = 3) was 1.48 ± 0.12 %ID/g, the tissue uptake ([2]; double blocking (NDP + c(RGDyK)), ex vivo after PET/CT scan, i.v., n = 3) was 1 ± 0.11 %ID/g and the tissue uptake ([2]; without blocking, ex vivo after PET/CT scan, i.v., n = 3) was 2.33 ± 0.46 %ID/g. For the same molecule, the tissue to tissue ratio ([2]; U87MG tumor / blood, without blocking, read-out: tumor/blood ratio, U87MG) was 2.4 ± 0.67, the tissue to tissue ratio ([2]; U87MG tumor / kidneys, without blocking, read-out: tumor/kidneys ratio, U87MG) was 0.18 ± 0.02 and the tissue to tissue ratio ([2]; U87MG tumor / liver, without blocking, read-out: tumor/liver ratio, U87MG) was 0.14 ± 0.03. For the same molecule, the tissue to tissue ratio ([2]; U87MG tumor / muscle, without blocking, read-out: tumor/muscle ratio, U87MG) was 0.79 ± 0.66, the tissue uptake at 1.5 h ([2]; U87MG tumor, without blocking, ex vivo after PET/CT scan, i.v., n = 3) was 2.33 ± 0.46 %ID/g and the “ID/g, U87MG tumor” value [3] was 1.48 ± 0.12 % ID/g.
